Laboratory results reported in patent US20160128952A1, “Pharmaceutical Combination” (Gruenenthal GmbH, priority 2006, published 2016).

Tested on: inflammatory pain
Experiment: Randall-Selitto test in rats (carrageenin-induced paw oedema, pressure pain)
Type: in vivo, rat
Experimental: The weight ratios of the components (a) and (b) that will lead to a supra-additive effect (synergistic effect) of the inventive pharmaceutical composition may be determined via the test of Randall and Selitto as described in Arch. Int. Pharmacodyn., 1957, 111: 409 to 419, which is a model for inflammatory pain. The respective part of the literature is hereby incorporated by reference and forms part of the present disclosure.
By means of injection of 0.1 ml of Carrageenin-suspension ventrally into a hind paw of a rat an oedema is induced, on which pain is generated 4 hours later by continuously increasing pressure with a stamp (2 mm tip diameter). The antinociceptive and antihyperalgesic activity of the tested substance is determined at different points in time after administration of the substance. The measured value to be determined and at the same time also the end point of the pain test is the pressure at which the vocalisation reaction of the rat occurs. The percentage maximum possible effect (%MPE) is calculated. The maximum pressure of the stamp is 250 g. The group size is n=10.
The interactions studies presented herein were performed using equieffective doses of the two components, calculated from the ratio of the respective ED50 values of the components if administered alone. […]

Compound | ED50 (Rattus norvegicus, iv, 0.25 h, i.v., 15 min p. appl. (peak effect), %MPE, vocalisation pressure, n=10, read-out: ED50 (confidence interval) of A applied alone) | analgesic effect (in words) (Paracetamol alone, i.p.)
CC[C@@H](c1cccc(O)c1)[C@@H](C)CN(C)C [A, (1R,2R)-3-(3-Dimethylamino-1-ethyl-2-methyl-propyl)-phenol] | 1.88 mg/kg | 
CC(=O)Nc1ccc(O)cc1 [Paracetamol] |  | dose-dependent analgesic effect
